Laboratory results from BindingDB's records for doi:10.3109/14756366.2011.604851 (Shandong University, 2012).

Experiments:
[1] = target: T1, Gag-Pol polyprotein (Human immunodeficiency virus type 1 group M subtype B (isolate HXB2), UniProt P04585); test: 3'-P Inhibitory Assay
Description: Cleavage of a dinucleotide from each 3'-end of viral cDNA. All biological assays were performed essentially as previously described [Dayam et al., J. Med. Chem., 51:1136-1144].

[2] = target: T1, Gag-Pol polyprotein; test: ST Inhibitory Assay
Description: Insertion of two newly processed 3'-viral DNA ends into the host-cell chromosome. All biological assays were performed essentially as previously described [Dayam et al., J. Med. Chem., 51:1136-1144].

Row | Structure (SMILES) | IC50 [1] | IC50 [2]
1 | CC(=O)Oc1cc(C(=O)Nc2ccc(S(=O)(=O)Nc3cccc(Cl)c3F)cc2)cc(OC(C)=O)c1OC(C)=O [N-(4-(3-chloro-2-fluorophenylsulfamoyl)phenyl)-3,4,5-triacetoxybenzamide (8l)] | 5 µM | 2 µM
2 | O=C(Nc1ccc(S(=O)(=O)Nc2cccc(Cl)c2F)cc1)c1cc(O)c(O)c(O)c1 [N-(4-(3-chloro-2-fluorophenylsulfamoyl)phenyl)galloylamide (9l)] | 1.3 µM | 0.8 µM
3 | O=C(Nc1ccc(S(=O)(=O)Nc2ccc(Br)cc2)cc1)c1cc(O)c(O)c(O)c1 [N-(4-(4-Bromophenylsulfamoyl)phenyl)galloylamide (9e)] | 3 µM | 0.7 µM
4 | CCCCc1ccc(NS(=O)(=O)c2ccc(NC(=O)c3cc(O)c(O)c(O)c3)cc2)cc1 [N-(4-(4-Butylphenylsulfamoyl)phenyl)galloylamide (9i)] | 3 µM | 2.5 µM
5 | O=C(Nc1ccc(S(=O)(=O)NCc2ccc(Cl)cc2)cc1)c1cc(O)c(O)c(O)c1 [N-(4-(4-Chlorobenzylsulfamoyl)phenyl)galloylamide (9o)] | 5 µM | 2 µM
6 | O=C(Nc1ccc(S(=O)(=O)Nc2ccc(Cl)cc2)cc1)c1cc(O)c(O)c(O)c1 [N-(4-(4-Chlorophenylsulfamoyl)phenyl)galloylamide (9n)] | 6 µM | 2 µM
7 | CCOc1ccc(NS(=O)(=O)c2ccc(NC(=O)c3cc(O)c(O)c(O)c3)cc2)cc1 [N-(4-(4-Ethoxylphenylsulfamoyl)phenyl)galloylamide (9j)] | 6 µM | 1.3 µM
8 | O=C(Nc1ccc(S(=O)(=O)NCc2ccc(F)cc2)cc1)c1cc(O)c(O)c(O)c1 [N-(4-(4-Fluorobenzylsulfamoyl)phenyl)galloylamide (9d)] | 7 µM | 2 µM
9 | O=C(Nc1ccc(S(=O)(=O)Nc2ccc(F)cc2)cc1)c1cc(O)c(O)c(O)c1 [N-(4-(4-Fluorophenylsulfamoyl)phenyl)galloylamide (9a)] | 7 µM | 0.9 µM
10 | COc1ccc(NS(=O)(=O)c2ccc(NC(=O)c3cc(O)c(O)c(O)c3)cc2)cc1 [N-(4-(4-Methoxylphenylsulfamoyl)phenyl)galloylamide (9q)] | 5 µM | 4.5 µM
11 | O=C(Nc1ccc(S(=O)(=O)Nc2ccc([N+](=O)[O-])cc2)cc1)c1cc(O)c(O)c(O)c1 [N-(4-(4-Nitrophenylsulfamoyl)phenyl)galloylamide (9r)] | 4 µM | 3 µM
12 | CC(=O)Oc1cc(C(=O)Nc2ccc(S(=O)(=O)Nc3ccccc3)cc2)cc(OC(C)=O)c1OC(C)=O [N-(4-Phenylsulfamoylphenyl)-3,4,5-triacetoxybenzamide (8m)] | 8 µM | 1.6 µM
13 | O=C(Nc1ccc(S(=O)(=O)Nc2ccccc2)cc1)c1cc(O)c(O)c(O)c1 [N-(4-Phenylsulfamoylphenyl)galloylamide (9m)] | 7 µM | 1.5 µM
14 | O=C(Nc1ccc(S(=O)(=O)Nc2ccccc2)cc1)c1ccc(O)c(O)c1 [N-(4-phenylsulfamoylphenyl)3,4-dihydroxybenzamidebenzamide (11w)] | 100 µM | 50 µM
